Experimental data taken from ChEMBL document CHEMBL1909294, “Translating clinical findings into knowledge in drug safety evaluation--drug induced liver injury prediction system (DILIps)” (PLoS Comput Biol, 2011).

How the values were obtained:
[1] = tested on: Hepatotoxicity;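 for HepSE Combined Scores: combined hepatic side effect score as listed in the training data of the Drug Induced Liver Injury Prediction System (DILIps)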;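 for HepSE cholelithiasis: hepatic side effect score for cholelithiasis, drawn from the DILIps training data for predicting drug-induced liver injury; call rule not given here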;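 for HepSE elevated liver function tests: hepatic side effect score for raised liver function tests, as recorded in the DILIps training set used for predicting drug-induced liver injury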; for HepSE hepatic failure: call rule not given here;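 for HepSE hepatitis: Hepatitis-related hepatic side effect score taken from the training data of DILIps, a prediction system for drug-induced liver injury; call rule not given here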;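 for HepSE jaundice: Jaundice-related hepatic side-effect score drawn from the training data of the DILIps (drug-induced liver injury prediction system); call rule not given here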;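 for HepSE liver function tests abnormal: hepatic side effect score taken from the DILIps (drug-induced liver injury prediction system) training data, here covering abnormal liver function test findings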
[2] = tested on: Hepatotoxicity; remark: listed apart in the source;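 for HepSE Combined Scores: combined hepatic side effect score as listed in the training data of the Drug Induced Liver Injury Prediction System (DILIps)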;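 for HepSE cholelithiasis: hepatic side effect score for cholelithiasis, drawn from the DILIps training data for predicting drug-induced liver injury; call rule not given here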;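 for HepSE elevated liver function tests: hepatic side effect score for raised liver function tests, as recorded in the DILIps training set used for predicting drug-induced liver injury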; for HepSE hepatic failure: call rule not given here;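 for HepSE jaundice: Jaundice-related hepatic side-effect score drawn from the training data of the DILIps (drug-induced liver injury prediction system); call rule not given here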;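 for HepSE liver function tests abnormal: hepatic side effect score taken from the DILIps (drug-induced liver injury prediction system) training data, here covering abnormal liver function test findings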
[3] = tested on: Hepatotoxicity; remark: listed apart in the source;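 for HepSE Combined Scores: combined hepatic side effect score as listed in the training data of the Drug Induced Liver Injury Prediction System (DILIps)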;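 for HepSE cholelithiasis: hepatic side effect score for cholelithiasis, drawn from the DILIps training data for predicting drug-induced liver injury; call rule not given here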;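 for HepSE elevated liver function tests: hepatic side effect score for raised liver function tests, as recorded in the DILIps training set used for predicting drug-induced liver injury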; for HepSE hepatic failure: call rule not given here;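 for HepSE jaundice: Jaundice-related hepatic side-effect score drawn from the training data of the DILIps (drug-induced liver injury prediction system); call rule not given here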;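 for HepSE liver function tests abnormal: hepatic side effect score taken from the DILIps (drug-induced liver injury prediction system) training data, here covering abnormal liver function test findings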
[4] = tested on: Hepatotoxicity; remark: listed apart in the source;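 for HepSE Combined Scores: combined hepatic side effect score as listed in the training data of the Drug Induced Liver Injury Prediction System (DILIps)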;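 for HepSE cholelithiasis: hepatic side effect score for cholelithiasis, drawn from the DILIps training data for predicting drug-induced liver injury; call rule not given here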;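 for HepSE elevated liver function tests: hepatic side effect score for raised liver function tests, as recorded in the DILIps training set used for predicting drug-induced liver injury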; for HepSE hepatic failure: call rule not given here;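 for HepSE jaundice: Jaundice-related hepatic side-effect score drawn from the training data of the DILIps (drug-induced liver injury prediction system); call rule not given here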;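 for HepSE liver function tests abnormal: hepatic side effect score taken from the DILIps (drug-induced liver injury prediction system) training data, here covering abnormal liver function test findings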
[5] = tested on: Hepatotoxicity; remark: listed apart in the source; for HepSE hepatic failure: call rule not given here
[6] = tested on: Hepatotoxicity; remark: listed apart in the source; for HepSE hepatic failure: call rule not given here
[7] = tested on: Hepatotoxicity; remark: listed apart in the source
[8] = tested on: Hepatotoxicity; remark: listed apart in the source
[9] = tested on: Hepatotoxicity; remark: listed apart in the source
[10] = tested on: Hepatotoxicity; remark: listed apart in the source
[11] = tested on: Hepatotoxicity; remark: listed apart in the source
[12] = tested on: Hepatotoxicity; remark: listed apart in the source
[13] = tested on: Hepatotoxicity; remark: listed apart in the source
[14] = tested on: Hepatotoxicity; remark: listed apart in the source

| SMILES | HepSE_elevated liver function tests ([1]; Liver) | HepSE_jaundice ([2]; Liver) | HepSE_liver function tests abnormal ([3]; Liver) | HepSE_hepatic failure ([4]; Liver) | HepSE_cholelithiasis ([5]; Liver) | HepSE_Combined Scores ([6]; Liver) | HepSE_elevated liver function tests [1] | HepSE_jaundice [2] | HepSE_liver function tests abnormal [3] | HepSE_hepatic failure [4] | HepSE_cholelithiasis [5] | HepSE_Combined Scores [6] | HepSE_hepatitis [7] | HepSE_liver disease [8] | HepSE_bilirubinemia [9] | HepSE_cholecystitis [10] | HepSE_hepatic necrosis [11] | HepSE_cirrhosis [12] | HepSE_hepatomegaly [13] | HepSE_liver fatty [14] | other results |
| --- | --- | --- | --- | --- | --- | --- | --- | --- | --- | --- | --- | --- | --- | --- | --- | --- | --- | --- | --- | --- | --- |
| O=C(O)CN(CCN(CC(=O)O)CC(=O)O)CC(=O)O [EDETIC ACID] | 0 | 0 | 0 | 0 | 0 | 0 |  |  |  |  |  |  |  |  |  |  |  |  |  |  | HepSE_hepatitis ([7]; Liver): 0; HepSE_liver disease ([8]; Liver): 0; HepSE_bilirubinemia ([9]; Liver): 0; HepSE_cholecystitis ([10]; Liver): 0; HepSE_hepatic necrosis ([11]; Liver): 0; HepSE_cirrhosis ([12]; Liver): 0; HepSE_hepatomegaly ([13]; Liver): 0; HepSE_liver fatty ([14]; Liver): 0 |
| O=C1Nc2ccc(Cl)cc2[C@@](C#CC2CC2)(C(F)(F)F)O1 [EFAVIRENZ] |  |  |  |  |  |  | 0 | 1 | 0 | 1 | 0 | 4 | 1 | 0 | 0 | 0 | 0 | 0 | 1 | 0 |  |
| NCCCC(N)(C(=O)O)C(F)F (stereo unspecified) [EFLORNITHINE] |  |  |  |  |  |  | 0 | 0 | 0 | 0 | 0 | 0 | 0 | 0 | 0 | 0 | 0 | 0 | 0 | 0 |  |
| CCOCCn1c(N2CCCN(C)CC2)nc2ccccc21 [EMEDASTINE] |  |  |  |  |  |  | 0 | 0 | 0 | 0 | 0 | 0 | 0 | 0 | 0 | 0 | 0 | 0 | 0 | 0 |  |
| Nc1nc(=O)n([C@@H]2CS[C@H](CO)O2)cc1F [EMTRICITABINE] | 0 | 0 | 0 | 0 | 0 | 0 |  |  |  |  |  |  |  |  |  |  |  |  |  |  | HepSE_hepatitis ([7]; Liver): 0; HepSE_liver disease ([8]; Liver): 0; HepSE_bilirubinemia ([9]; Liver): 0; HepSE_cholecystitis ([10]; Liver): 0; HepSE_hepatic necrosis ([11]; Liver): 0; HepSE_cirrhosis ([12]; Liver): 0; HepSE_hepatomegaly ([13]; Liver): 0; HepSE_liver fatty ([14]; Liver): 0 |
| COc1ccc(C(=O)Nc2ccccc2CCC2CCCCN2C)cc1 (stereo unspecified) [ENCAINIDE] |  |  |  |  |  |  | 0 | 1 | 0 | 0 | 0 | 2 | 1 | 0 | 0 | 0 | 0 | 0 | 0 | 0 |  |
| CCN(CC)C(=O)/C(C#N)=C/c1cc(O)c(O)c([N+](=O)[O-])c1 [ENTACAPONE] |  |  |  |  |  |  | 0 | 0 | 0 | 1 | 1 | 5 | 1 | 0 | 1 | 1 | 0 | 0 | 0 | 0 |  |
| NC1=NCC2c3ccccc3Cc3ccccc3N12 (stereo unspecified) [EPINASTINE] | 0 | 0 | 0 | 0 | 0 | 0 |  |  |  |  |  |  |  |  |  |  |  |  |  |  | HepSE_hepatitis ([7]; Liver): 0; HepSE_liver disease ([8]; Liver): 0; HepSE_bilirubinemia ([9]; Liver): 0; HepSE_cholecystitis ([10]; Liver): 0; HepSE_hepatic necrosis ([11]; Liver): 0; HepSE_cirrhosis ([12]; Liver): 0; HepSE_hepatomegaly ([13]; Liver): 0; HepSE_liver fatty ([14]; Liver): 0 |
| CNC[C@H](O)c1ccc(O)c(O)c1 [EPINEPHRINE] | 0 | 0 | 0 | 0 | 0 | 0 |  |  |  |  |  |  |  |  |  |  |  |  |  |  | HepSE_hepatitis ([7]; Liver): 0; HepSE_liver disease ([8]; Liver): 0; HepSE_bilirubinemia ([9]; Liver): 0; HepSE_cholecystitis ([10]; Liver): 0; HepSE_hepatic necrosis ([11]; Liver): 0; HepSE_cirrhosis ([12]; Liver): 0; HepSE_hepatomegaly ([13]; Liver): 0; HepSE_liver fatty ([14]; Liver): 0 |
